Assay results reported in patent US20240270821A1, “GIP/GLP1/GCG TRI-RECEPTOR AGONISTS AND USES THEREOF” (priority 2023, published 2024).
Where two headings read alike, the source gives them in different places. Starred links: 1 amine or outer side, 2 acyl side, 3 side chain; linkers in the order of their positions; H or OH if unused. Non-standard residues stand in square brackets, D forms with d. Groups on a side chain read outwards from the residue. *: point of attachment. C18 diacid = O=C(O)CCCCCCCCCCCCCCCCC(=O)*; γGlu = O=C(O)[C@H](CCC(=O)[*:2])N[*:1]; αMe4Pal = C[C@](N)(Cc1ccncc1)C(=O)O; 4Pal = N[C@@H](Cc1ccncc1)C(=O)O; αMeL = CC(C)C[C@](C)(N)C(=O)O; Orn = NCCC[C@H](N)C(=O)O; Dab = NCC[C@H](N)C(=O)O; AEEA = NCCOCCOCC(=O)O; Aib = CC(C)(N)C(=O)O

T1: hGIPR (Homo sapiens, UniProt P48546)
T1 sequence (P48546 22-466): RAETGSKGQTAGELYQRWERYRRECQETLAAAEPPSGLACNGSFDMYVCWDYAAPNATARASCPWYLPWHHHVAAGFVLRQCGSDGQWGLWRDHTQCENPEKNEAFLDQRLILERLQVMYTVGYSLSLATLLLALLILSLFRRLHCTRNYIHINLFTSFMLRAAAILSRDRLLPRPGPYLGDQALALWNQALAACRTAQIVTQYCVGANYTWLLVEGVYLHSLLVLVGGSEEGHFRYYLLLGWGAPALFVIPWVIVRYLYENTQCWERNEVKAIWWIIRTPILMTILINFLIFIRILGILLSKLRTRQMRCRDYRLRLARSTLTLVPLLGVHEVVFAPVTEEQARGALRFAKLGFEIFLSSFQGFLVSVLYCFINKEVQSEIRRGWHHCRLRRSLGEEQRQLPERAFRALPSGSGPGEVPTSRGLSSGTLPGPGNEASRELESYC

T2: human GIP receptor (human) (UniProt P48546)
T2 sequence (looked up): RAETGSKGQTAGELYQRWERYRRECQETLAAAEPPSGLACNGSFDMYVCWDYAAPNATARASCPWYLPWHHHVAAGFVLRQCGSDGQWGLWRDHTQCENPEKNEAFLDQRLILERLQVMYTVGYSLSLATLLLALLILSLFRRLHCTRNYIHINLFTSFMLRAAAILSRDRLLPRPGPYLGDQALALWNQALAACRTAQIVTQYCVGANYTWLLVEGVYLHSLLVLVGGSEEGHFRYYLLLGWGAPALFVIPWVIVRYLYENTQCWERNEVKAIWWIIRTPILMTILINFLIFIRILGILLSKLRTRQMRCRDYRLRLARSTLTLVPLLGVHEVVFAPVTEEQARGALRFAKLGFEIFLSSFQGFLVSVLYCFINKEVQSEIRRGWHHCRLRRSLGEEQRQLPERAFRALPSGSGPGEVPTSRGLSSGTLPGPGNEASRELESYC


Columns and labels:
human GcgR = human GcgR (Homo sapiens, UniProt P47871); experiment: Functional cAMP activity in the presence of 1% HSA; assay type: cell-based; details: read-out: cAMP Rel EC50, hGcgR
hGcgR = hGcgR (Homo sapiens, UniProt P47871); experiment: Functional cAMP activation in the presence of 0.1% casein (no HSA); assay type: cell-based; details: in the presence of 0.1% casein (no HSA); geometric mean; read-out: Relative cAMP EC50, hGcgR;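 further: intracellular cAMP rise after 30 min at 37 °C, read by HTRF against a cAMP standard curve, scaled from buffer only (0%) to maximal control ligand response (100%)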
hGIPR [1] = biological target: T1, hGIPR; experiment: Functional cAMP activity in the presence of 1% HSA; assay type: cell-based; details: read-out: cAMP Rel EC50, hGIPR
hGIPR [2] = biological target: T1, hGIPR; experiment: Functional cAMP activation in the presence of 0.1% casein (no HSA); assay type: cell-based; details: in the presence of 0.1% casein (no HSA); geometric mean; read-out: Relative cAMP EC50, hGIPR;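 on Relative cAMP EC50, hGIPR: intracellular cAMP rise after 30 min at 37 °C read by HTRF against a standard curve, scaled between buffer alone (0%) and top control ligand concentration (100%), four-parameter fit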;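 on Relative cAMP EC50, hGLP-1R: intracellular cAMP rise after 30 min at 37 °C read by HTRF, normalized between buffer only (0%) and maximal control ligand (100%), four-parameter variable-slope fit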
hGLP-1R [3] = biological target: T3, hGLP-1R (Homo sapiens, UniProt P43220); experiment: as above; assay type: cell-based; details: in the presence of 0.1% casein (no HSA); geometric mean; read-out: Relative cAMP EC50, hGLP-1R;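 further: intracellular cAMP rise after 30 min at 37 °C read by HTRF, normalized between buffer only (0%) and maximal control ligand (100%), four-parameter variable-slope fit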
hGLP-1R [4] = biological target: T3, hGLP-1R; experiment: cell-based or functional assay
[5] = biological target: T2, human GIP receptor (human); experiment: cell-based or functional assay
[6] = biological target: human glucagon receptor (human) (UniProt P47871); experiment: cell-based or functional assay
[7] = HEK-293 clonal cell line, in the presence of 1% HSA, geometric mean of relative EC50

Sequence of hGcgR (P47871 26-477): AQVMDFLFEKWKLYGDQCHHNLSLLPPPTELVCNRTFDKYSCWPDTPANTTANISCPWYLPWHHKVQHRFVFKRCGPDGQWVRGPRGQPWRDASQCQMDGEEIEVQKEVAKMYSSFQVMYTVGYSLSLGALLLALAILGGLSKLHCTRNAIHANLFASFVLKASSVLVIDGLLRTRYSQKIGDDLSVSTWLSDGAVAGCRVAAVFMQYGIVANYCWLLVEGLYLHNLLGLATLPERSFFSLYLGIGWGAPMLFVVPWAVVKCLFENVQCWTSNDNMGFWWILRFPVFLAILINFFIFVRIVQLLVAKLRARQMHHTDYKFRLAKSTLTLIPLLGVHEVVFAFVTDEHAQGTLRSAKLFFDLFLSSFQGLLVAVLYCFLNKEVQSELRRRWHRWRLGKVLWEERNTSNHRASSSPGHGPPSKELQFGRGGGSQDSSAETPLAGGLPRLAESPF
Sequence of human GcgR (P47871 26-477): as above
Sequence of human glucagon receptor (human) (P47871 26-477): as above
T3 sequence (P43220 24-463): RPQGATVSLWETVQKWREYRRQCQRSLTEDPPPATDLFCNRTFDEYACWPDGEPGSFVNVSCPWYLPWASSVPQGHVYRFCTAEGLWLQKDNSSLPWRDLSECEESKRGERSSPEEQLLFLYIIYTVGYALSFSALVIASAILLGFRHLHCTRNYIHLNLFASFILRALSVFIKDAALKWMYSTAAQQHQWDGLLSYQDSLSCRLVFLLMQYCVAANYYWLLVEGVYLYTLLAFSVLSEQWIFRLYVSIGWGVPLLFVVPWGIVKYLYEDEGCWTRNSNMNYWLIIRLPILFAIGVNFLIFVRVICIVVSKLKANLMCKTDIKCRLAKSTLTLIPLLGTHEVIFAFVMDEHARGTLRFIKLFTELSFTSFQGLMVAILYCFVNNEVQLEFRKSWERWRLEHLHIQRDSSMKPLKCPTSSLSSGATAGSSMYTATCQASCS

Molecule | EC50 (human GcgR) | EC50 (hGcgR) | EC50 (hGIPR [1]; [7]) | EC50 (human GcgR; [7]) | EC50 (hGIPR [2]) | EC50 (hGLP-1R [3]) | EC50 (hGIPR [1]) | Relative cAMP EC50 (hGLP-1R [4]) | Relative cAMP EC50 [5] | Relative cAMP EC50 [6]
CC[C@H](C)[C@H](NC(=O)[C@H](CO)NC(=O)[C@H](Cc1ccc(O)cc1)NC(=O)[C@H](CC(=O)O)NC(=O)[C@H](CO)NC(=O)[C@@H](NC(=O)[C@H](Cc1ccccc1)NC(=O)[C@@H](NC(=O)CNC(=O)[C@H](CCC(=O)O)NC(=O)[C@H](C)NC(=O)[C@@H](N)Cc1ccc(O)cc1)[C@@H](C)O)[C@@H](C)CC)C(=O)N[C@@H](C)C(=O)N[C@@H](CCSC)C(=O)N[C@@H](CC(=O)O)C(=O)N[C@@H](CCCCN)C(=O)N[C@H](C(=O)N[C@@H](Cc1c[nH]cn1)C(=O)N[C@@H](CCC(N)=O)C(=O)N[C@@H](CCC(N)=O)C(=O)N[C@@H](CC(=O)O)C(=O)N[C@@H](Cc1ccccc1)C(=O)N[C@H](C(=O)N[C@@H](CC(N)=O)C(=O)N[C@@H](Cc1c[nH]c2ccccc12)C(=O)N[C@@H](CC(C)C)C(=O)N[C@@H](CC(C)C)C(=O)N[C@@H](C)C(=O)N[C@@H](CCC(N)=O)C(=O)N[C@@H](CCCCN)C(=O)NCC(=O)N[C@@H](CCCCN)C(=O)N[C@@H](CCCCN)C(=O)N[C@@H](CC(N)=O)C(=O)N[C@@H](CC(=O)O)C(=O)N[C@@H](Cc1c[nH]c2ccccc12)C(=O)N[C@@H](CCCCN)C(=O)N[C@@H](Cc1c[nH]cn1)C(=O)N[C@@H](CC(N)=O)C(=O)N[C@H](C(=O)N[C@H](C(=O)N[C@@H](CCC(N)=O)C(N)=O)[C@@H](C)O)[C@@H](C)CC)C(C)C)[C@@H](C)CC [hGIP 1-42 amide] | > 9950 nM | > 99.5 nM | – | – | – | – | – | – | – | –
H-Y[Aib]QGTFTSDFS[Orn][αMeL]LDKK([γGlu-γGlu-C18 diacid])AQ[Aib]AFIEYLLAGGPSSGAPPPEGSEE-NH2 [Example 1051] | – | 10.3 nM | 32.6 nM | 1800 nM | 0.172 nM | 8.3 nM | – | – | – | –
H-Y[Aib]QGTFTSDFS[Orn][αMeL]LD[Orn]K([γGlu-γGlu-C18 diacid])AQ[Aib]AFIE[αMe4Pal]LLAGGPSSGAPPPEGSEE-NH2 [Example 1053] | – | 10.4 nM | 19.3 nM | 3470 nM | 0.123 nM | 6.2 nM | – | – | – | –
H-Y[Aib]QGTFTSD[4Pal]SQ[αMeL]LD[Orn]K([Glu-γGlu-C18 diacid])AQ[αMe4Pal]AFIEYLLAGGPSSGAPPPSGSEE-NH2 [Example 1057] | 2780 nM | 5.29 nM | – | – | 0.128 nM | 5.16 nM | 25.9 nM | – | – | –
H-Y[Aib]QGTFTSD[4Pal]SQ[αMeL]LD[Orn]K([γGlu-γGlu-C18 diacid])AQ[αMe4Pal]AFIEYLLAGGPSSGAPPPSGSEE-NH2 [Example 1056] | 1650 nM | 3.98 nM | – | – | 0.0929 nM | 4.25 nM | 29.6 nM | – | – | –
H-Y[Aib]QGTFTSD[4Pal]SR[αMeL]LDKK([AEEA-γGlu-C18 diacid])AQ[Aib]AFIEYLIE[Aib]SPSSGAPPPSGS-NH2 [Example 807] | – | 12.4 nM | – | – | 0.108 nM | 1.72 nM | – | – | – | –
H-Y[Aib]QGTFTSD[4Pal]S[Dab][αMeL]LDKK([AEEA-γGlu-C18 diacid])AQ[Aib]AFIEYLIE[Aib]GPSSGAPPPSGS-NH2 [Example 803] | – | 9.75 nM | – | – | 0.232 nM | 2.02 nM | – | – | – | –
YXQGTFTSDXSQXLDKKAQXAFIEXLIEXGPSSGAPPPSGE (Aib, 4Pal, αMeL, Me4Pal; acylated K; C-terminal amide; synthetic construct; SITE 2: note = 2-Aminoisobutyric Acid; SITE 10: note = 3-(4-Pyridyl)-L-alanine; SITE 13: note = alpha-methyl-leucine; SITE 17: note = Lysine is chemically modified through conjugation of the epsilon-amino group of the Lysine side chain with (gamma-Glu)2-CO-(CH2)16-CO2H; SITE 20:) [Example 1120] | – | – | – | – | – | – | – | 4.5 nM | 0.096 nM | 5.17 nM
YXQGTFTSDXSQXLDKKAQXAFIEXLIEXGPSSGAPPPSGEE (Aib, 4Pal, αMeL, Me4Pal, acylated K, C-terminal amide; synthetic construct; SITE 2: note = 2-Aminoisobutyric Acid; SITE 10: note = 3-(4-Pyridyl)-L-alanine; SITE 13: note = alpha-methyl-leucine; SITE 17: note = Lysine is chemically modified through conjugation of the epsilon-amino group of the Lysine side chain with (gamma-Glu)2-CO-(CH2)16-CO2H; SITE 20:) [Example 1121] | – | – | – | – | – | – | – | 5.23 nM | 0.115 nM | 8.83 nM
YXQGTFTSDXSQXLDKKAQXAFIEXLIEXGPSSGAPPPSGSEE (Aib, 4Pal, αMeL, Me4Pal; K (γGlu)2-C18 diacid; amide; synthetic construct; SITE 2: note = 2-Aminoisobutyric Acid; SITE 10: note = 3-(4-Pyridyl)-L-alanine; SITE 13: note = alpha-methyl-leucine; SITE 17: note = Lysine is chemically modified through conjugation of the epsilon-amino group of the Lysine side chain with (gamma-Glu)2-CO-(CH2)16-CO2H; SITE 20:) [Example 1122] | – | – | – | – | – | – | – | 5.66 nM | 0.109 nM | 10.3 nM
YXQGTFTSDXSQXLDKKAQXAFIEYLIEXGPSSGAPPPSGTE (non-natural residues; (γGlu)2-C18 diacid on Lys; C-terminal amide; synthetic construct; SITE 2: note = 2-Aminoisobutyric Acid; SITE 10: note = 3-(4-Pyridyl)-L-alanine; SITE 13: note = alpha-methyl-leucine; SITE 17: note = Lysine is chemically modified through conjugation of the epsilon-amino group of the Lysine side chain with (gamma-Glu)2-CO-(CH2)16-CO2H; SITE 20:) [Example 1126] | – | – | – | – | – | – | – | 4.56 nM | 0.174 nM | 3.92 nM
YXQGTFTSDXSQXLDKKAQXAFIEYLIEXGPSSGAPPPSGTGE (Aib, 4Pal, Me4Pal, alpha-methyl-Leu, lipidated Lys, C-terminal amide; synthetic construct; SITE 2: note = 2-Aminoisobutyric Acid; SITE 10: note = 3-(4-Pyridyl)-L-alanine; SITE 13: note = alpha-methyl-leucine; SITE 17: note = Lysine is chemically modified through conjugation of the epsilon-amino group of the Lysine side chain with (gamma-Glu)2-CO-(CH2)16-CO2H; SITE 20:) [Example 1127] | – | – | – | – | – | – | – | 6.16 nM | 0.167 nM | 5.95 nM
